# Measured values published in patent publication US10450260B2, “NO- and H2S-releasing compounds” (RESEARCH FOUNDATION OF THE CITY UNIVERSITY OF NEW YORK, priority 2011, dated 2019).
# Legend:
# Type in all cases: cell-based
# [1] = test system: MDA-MB 231 human breast cancer; experiment: MTT cell growth inhibition, MDA MB231; details: for IC50: Homo sapiens, MDA-MB-231; for Ratio NSAID/NOSH-NSAID, MDA MB231: fold-enhancement in potency over the parent compound
# Description: (§1) HT-29, SW-480 and HCT-15 human colon adenocarcinoma, MIA PaCa-2 and BxPC-3 human pancreatic cancer, LNCAP human prostate cancer, A549 human lung cancer, MCF-7 (estrogen receptor positive), MDA-MB 231 and SK-BR-3 (estrogen receptor negative) human breast cancer, and Jurkats human leukemia cell lines were obtained from American Type Tissue Collection (Manassas, Va.). All cells lines were grown as monolayers except for the Jurkats which were grown in suspension. The pancreatic and breast cancer cells were grown in Dulbecco's modified Eagle's medium, the prostate, Jurkat, SW-480 and HCT-15 colon cells were grown in RPMI 1640 medium, the lung cells were grown in F-12 and the colon HT-29 cells were grown in McCoy 5A. All media were supplemented with 10% fetal calf serum (Invitrogen, Carlsbad, Calif.) penicillin (50 U/ml), and streptomycin (50 μg/ml) (Invitrogen, Carlsbad, Calif.). Cells were seeded on culture dishes at a density of 25×10^3 cells/cm^2 and incubated at 37° C. in 5% CO2 and 90% relative humidity. Single cell suspensions were obtained by trypsinization (0.05% trypsin/EDTA), and cells were counted using a hemocytometer. Viability was determined by the trypan blue dye exclusion method.
# (§2) Cell growth inhibitory effect of NOSH compounds were measured using a colorimetric MTT assay kit (Roche, Indianapolis, Ind.). Cancer cells were plated in 96-well plates at a density of 50,000 cells/well. The cells were incubated for 24 h with different concentrations of NOSH compounds. After the indicated time, 10 μl of MTT dye (3-[4,5-dimethylthiazol-2-yl]-2,5-diphenyl tetrazolium bromide, 5 mg/ml in phosphate buffered saline), was added to each well, and the plates were incubated for 2 hours at 37° C. Then, the media was aspirated, and add 100 μl of the solubilization solution (10% SDS in 0.01 M HCl) was added to each well to solubilize the formant crystals. The absorbance of the plates was measured on an ELISA reader at a wavelength of 570 nm. Each sample was performed in triplicate, and the entire experiment was repeated three times.
# (§3) HT-29, SW-480 and HCT-15 human colon adenocarcinoma, MIA PaCa-2 and BxPC-3 human pancreatic cancer, LNCAP human prostate cancer, A549 and H383 human lung cancer, MCF-7, MDA-MB 231 and SK-BR-3 human breast cancer and Jurkat T cell human leukemia cell lines were obtained from American Type Tissue Collection (Manassas, Va.) All cells lines were grown as monolayers except for the Jurkat T cells which were grown as suspension culture. The pancreatic and breast cancer cells were grown in Dulbecco's modified Eagle's medium, the prostate, Jurkat, SW-480 and HCT-15 colon cells were grown in RPMI 1640 medium, the lung cells were grown in F-12 and the colon HT-29 cells were grown in McCoy 5A. All media were supplemented with 10% fetal calf serum (Invitrogen, Carlsbad, Calif.) penicillin (50 U/ml), and streptomycin (50 μg/ml) (Invitrogen, Carlsbad, Calif.). Cells were seeded on culture dishes at a density of 25×10^3 cells/cm^2 and incubated at 37° C. in 5% CO2 and 90% relative humidity. Single cell suspensions were obtained by trypsinization (0.05% trypsin/EDTA), and cells were counted using a hemacytometer. The final DMSO concentration was adjusted in all media to 1%. Viability was determined by the trypan blue dye exclusion method.
# (§4) Cell growth inhibitory effect of all NOSH-NSAIDs was measured using a colorimetric MTT assay kit (Roche, Indianapolis, Ind.). Cancer cells were plated in 96-well plates at a density of 30,000-50,000 cells/well depending on cell type. The cells were incubated for 24 hours with different concentrations of NOSH-NSAIDs. After the indicated time, 10 μL of MTT dye (3-[4,5-dimethylthiazol-2-yl]-2,5-diphenyl tetrazolium bromide, 5 mg/mL in phosphate buffered saline), was added to each well, and the plates were incubated for 2 hours at 37° C. Then, the media was aspirated, and 100 μL of the solubilization solution (10% SDS in 0.01 M HCl) was added to each well to solubilize the formant crystals. […]
# [2] = test system: SK-BR-3 human breast cancer; experiment: MTT cell growth inhibition, SKBR3; details: for IC50: Homo sapiens, SK-BR-3; for Ratio NSAID/NOSH-NSAID, SKBR3: fold-enhancement in potency over the parent compound
# Description: All cells lines were grown as monolayers except for the Jurkats which were grown in suspension. […] All media were supplemented with 10% fetal calf serum (Invitrogen, Carlsbad, Calif.) penicillin (50 U/ml), and streptomycin (50 μg/ml) (Invitrogen, Carlsbad, Calif.). Cells were seeded on culture dishes at a density of 25×10^3 cells/cm^2 and incubated at 37° C. in 5% CO2 and 90% relative humidity. Single cell suspensions were obtained by trypsinization (0.05% trypsin/EDTA), and cells were counted using a hemocytometer. Viability was determined by the trypan blue dye exclusion method.
# as §2
# All media were supplemented with 10% fetal calf serum (Invitrogen, Carlsbad, Calif.) penicillin (50 U/ml), and streptomycin (50 μg/ml) (Invitrogen, Carlsbad, Calif.). Cells were seeded on culture dishes at a density of 25×10^3 cells/cm^2 and incubated at 37° C. in 5% CO2 and 90% relative humidity. Single cell suspensions were obtained by trypsinization (0.05% trypsin/EDTA), and cells were counted using a hemacytometer. The final DMSO concentration was adjusted in all media to 1%. Viability was determined by the trypan blue dye exclusion method.
# Cell growth inhibitory effect of all NOSH-NSAIDs was measured using a colorimetric MTT assay kit (Roche, Indianapolis, Ind.). Cancer cells were plated in 96-well plates at a density of 30,000-50,000 cells/well depending on cell type. The cells were incubated for 24 hours with different concentrations of NOSH-NSAIDs. After the indicated time, 10 μL of MTT dye (3-[4,5-dimethylthiazol-2-yl]-2,5-diphenyl tetrazolium bromide, 5 mg/mL in phosphate buffered saline), was added to each well, and the plates were incubated for 2 hours at 37° C. Then, the media was aspirated, and 100 μL of the solubilization solution (10% SDS in 0.01 M HCl) was added to each well to solubilize the formant crystals. The absorbance of the plates was measured on a spectrophotometric plate reader at a wavelength of 570 nm. Each experiment was performed in triplicate, and the entire experiment was repeated three times.
# [3] = test system: LNCAP human prostate cancer; experiment: MTT cell growth inhibition, LNCAP; details: for IC50: Homo sapiens, LNCaP; for Ratio NSAID/NOSH-NSAID, LNCAP: fold-enhancement in potency over the parent compound
# Description: as §1, §2, §3, §4
IC50 ([1]; 24 hours),IC50 ([2]; 24 hours),IC50 ([3]; 24 hours),Compound,IC50 ([1]; 24 hours (Table 7)),"Ratio NSAID/NOSH-NSAID, MDA MB231 [1]",IC50 ([2]; 24 hours (Table 7)),"Ratio NSAID/NOSH-NSAID, SKBR3 [2]",IC50 ([3]; 24 hours (Table 7)),"Ratio NSAID/NOSH-NSAID, LNCAP [3]"
0.085 ± 0.008 µM,0.088 ± 0.007 µM,0.1 ± 0.012 µM,"O=C(CCC(=O)Oc1ccccc1C(=O)Oc1ccc(-c2cc(=S)ss2)cc1)OCCCCO[N+](=O)[O-] [NOSH-2, 4-(nitrooxy)butyl (2-((4-(3-thioxo-3H-1,2-dithiol-5-yl)phenoxy)carbonyl)phenyl) succinate]",–,–,–,–,–,–
–,–,–,"COc1ccc2cc([C@H](C)C(=O)O)ccc2c1 [naproxen, reference compound]",2900 µM,–,–,–,–,–
6 ± 0.22 µM,6.5 ± 0.268 µM,4.3 ± 0.212 µM,"NC(=S)c1ccc(OC(=O)c2ccccc2OC(=O)CCCO[N+](=O)[O-])cc1 [NOSH-3, 4-carbamothioylphenyl 2-((4-(nitrooxy)butanoyl)-oxy)benzoate]",–,–,–,–,–,–
–,–,–,"CC(C(=O)Oc1ccc(-c2cc(=S)ss2)cc1)c1ccc2cc(OC(=O)CCCO[N+](=O)[O-])ccc2c1 (stereo not shown) [NOSH-7, 6-(1-oxo-1-(4-(3-thioxo-3H-1,2-dithiol-5-yl)phenoxy)propan-2-yl)naphthalen-2-yl 4-(nitrooxy)butanoate]",0.11 µM,"26,363",0.1 µM,"28,900",0.13 µM,"23,000"
0.8 ± 0.022 µM,0.55 ± 0.028 µM,0.5 ± 0.018 µM,"O=C(CCCC[C@@H]1CCSS1)Oc1ccccc1C(=O)OCCCCO[N+](=O)[O-] [NOSH-4, (R)-4-(nitrooxy)butyl 2-((5-(1,2-dithiolan-3-yl)pentanoyl)oxy)benzoate]",–,–,–,–,–,–
–,–,–,"CC1=C(CC(=O)Oc2ccc(OC(=O)CCCO[N+](=O)[O-])c(C(=O)Oc3ccc(-c4cc(=S)ss4)cc3)c2)c2cc(F)ccc2/C1=C/c1ccc([S+](C)[O-])cc1 (stereo not shown) [NOSH-8, (E)-4-(3-thioxo-3H-1,2-dithiol-5-yl)phenyl 5-(2-(5-fluoro-2-methyl-1-(4-(methylsulfinyl)benzylidene)-1H-inden-3-yl)acetoxy)-2-((4-(nitrooxy)butanoyl)oxy)benzoate]",0.098 µM,"9,540",0.12 µM,"7,041",0.09 µM,"9,000"
–,–,–,"CC1=C(CC(=O)O)c2cc(F)ccc2/C1=C\c1ccc([S+](C)[O-])cc1 (stereo not shown) [sulindac, reference compound]",935 µM,–,845 µM,–,810 µM,–

Compound,IC50 ([1]; 24 hours),IC50 ([2]; 24 hours),IC50 ([3]; 24 hours),IC50 ([1]; 24 hours (Table 7)),"Ratio NSAID/NOSH-NSAID, MDA MB231 [1]",IC50 ([2]; 24 hours (Table 7)),"Ratio NSAID/NOSH-NSAID, SKBR3 [2]",IC50 ([3]; 24 hours (Table 7)),"Ratio NSAID/NOSH-NSAID, LNCAP [3]"
"O=C(CCCO[N+](=O)[O-])Oc1ccccc1C(=O)Oc1ccc(-c2cc(=S)ss2)cc1 [NOSH-1, 4-(3-thioxo-3H-1,2-dithiol-5-yl)phenyl 2-((4-(nitrooxy)butanoyl)oxy)benzoate]",0.1 ± 0.011 µM,0.075 ± 0.005 µM,0.088 ± 0.008 µM,–,–,–,–,–,–
